The record followed here is ChEMBL document CHEMBL1135998, “Identification of orally active, potent, and selective 4-piperazinylquinazolines as antagonists of the platelet-derived growth factor receptor tyrosine kinase family” (J Med Chem, 2002).

Series [1] in a line: in vivo. Particulars: rat, po, 5 mg/kg.
Series [2] is described as follows: in vivo. Particulars: primates, po, 5 mg/kg.
Series [3] in a line: in vivo. Particulars: rat, po, 5 mg/kg. The source holds these as a separate data set.
A short description of series [4]: in vivo. Particulars: simiiformes, po, 5 mg/kg.
Series [5] can be described thus: in vivo. The settings on record: dog, po, 5 mg/kg.
Series [6] can be described thus: in vivo. The settings on record: simiiformes, po, 5 mg/kg. This is another data set of the same source.
Series [7] can be described thus: in vivo.
Series [8] is described as follows: in vivo. Particulars: dog, po, 5 mg/kg. The source holds these as a separate data set.
Series [9] can be described thus: in vivo. The settings on record: dog, po, 5 mg/kg. This is another data set of the same source.
Series [10] can be described thus: in vivo. The settings on record: rat, plasma, po, 30 mg/kg.
Series [11] is described as follows: in vivo. Particulars: primates, po, 10 mg/kg.
Series [12] is described as follows: in vivo. Particulars: simiiformes, plasma, po, 10 mg/kg.
A short description of series [13]: in vivo. Particulars: simiiformes, po, 10 mg/kg.
Series [14] can be described thus: in vivo. Particulars: rat, po, 30 mg/kg.
Series [15] can be described thus: in vivo. The settings on record: rat, po, 30 mg/kg. This is another data set of the same source.
Series [16] in a line: in vivo. The settings on record: dog, po, 7.5 mg/kg.
A short description of series [17]: in vivo. Particulars: primates, po, 5 mg/kg. This is another data set of the same source.
Series [18] can be described thus: in vivo. Particulars: rat, po, 30 mg/kg. This is another data set of the same source.
The nature of series [19]: in vivo. Particulars: dog, po, 7.5 mg/kg. The source holds these as a separate data set.
Series [20] in a line: in vivo. The settings on record: rat, po, 30 mg/kg. This is another data set of the same source.
The nature of series [21]: in vivo. The settings on record: dog, po, 7.5 mg/kg. The source holds these as a separate data set.

The AUC is the area under the concentration-time curve, a measure of exposure. Read a low AUC as low exposure. Broadly, the bioavailability is the share of a dose that reaches the circulation, judged against a reference dose that is usually intravenous. The low end stands for little systemic uptake, the high end for much systemic uptake. One may read the Cmax as the highest concentration seen after dosing. As for `COc1cc2c(N3CCN(C(=O)Nc4ccc(OC(C)C)cc4)CC3)ncnc2cc1OCCCN1CCOCC1`, the AUC in “in vivo [1]” was 176 ng·h/mL; in the series “in vivo [4]” it was 663 ng·h/mL; in “in vivo [9]”, 1390 ng·h/mL. Further, the figures for the bioavailability in “in vivo [2]”, in “in vivo [3]” and in the series “in vivo [8]” were 18.9%, 20.8% and 63.3%, respectively. The Cmax was found to be 183 ng/mL in the series “in vivo [5]”, 135 ng/mL in the series “in vivo [6]” and 49.2 ng/mL in “in vivo [7]”.

As to `COc1cc2c(N3CCN(C(=O)Nc4ccc(OC(C)C)cc4)CC3)ncnc2cc1OCCN1CCCCC1`, the AUC came out at 4410 ng·h/mL in “in vivo [10]”, 3080 ng·h/mL in “in vivo [12]” and 387 ng·h/mL in “in vivo [9]”. In addition, the bioavailability was 38.8% in the series “in vivo [11]” and 13.5% in “in vivo [8]”. Further, the results for the Cmax in “in vivo [13]”, in the series “in vivo [5]” and in the series “in vivo [14]” were 386 ng/mL, 43 ng/mL and 414 ng/mL, respectively.

In the case of `COc1cc2c(N3CCN(C(=O)Nc4ccc(OC(C)C)cc4)CC3)ncnc2cc1OCCCN1CCCCC1` [TANDUTINIB], the AUC in the series “in vivo [15]” was 1700 ng·h/mL; in “in vivo [16]”, 2690 ng·h/mL; in “in vivo [4]”, 2920 ng·h/mL. Moreover, the results for the bioavailability in the series “in vivo [17]”, in the series “in vivo [18]” and in “in vivo [19]” were 48.9%, 23.8% and 97.6%, respectively. For the same compound, the highest concentration (Cmax) was determined as 256 ng/mL in “in vivo [20]”, 481 ng/mL in “in vivo [21]” and 317 ng/mL in “in vivo [7]”.
